Results: US10143638B2, “Method of treating skin with ingenol mebutate” (LEO Laboratories Limited, priority 2009, dated 2018)

Tests used:
Assay type in all cases: cell-based, human
[1] = test system: HAS1; assay: HAS1 gene expression by dermal fibroblasts (qPCR); conditions: TGF-β1 10 ng/ml
Description: (§1) A normal adult skin biopsy (6 mm) was obtained (n=1), with informed consent, from an individual attending the Oral Surgery Clinic, School of Dentistry, Wales College of Medicine, Cardiff. Following the application of a local anaesthetic, the dermal biopsy was collected and adult dermal fibroblast cultures established by single cell suspension technique, following enzymic degradation of the specimen. This technique has previously been reliably used to establish viable primary cultures of both oral and dermal fibroblasts in vitro (Cook et al, 2000; Stephens et al, 2001; 2003). Dermal fibroblasts were cultured in Fibroblast-Serum Containing Medium, containing Dulbecco's Modified Eagle's Medium (DMEM), supplemented with L-glutamine (2 mM), antibiotics (100 U/ml) penicillin G sodium, […] streptomycin sulphate and 0.25 μg/ml amphotericin B) and 10% foetal calf serum (all purchased from Invitrogen Ltd., Paisley, U.K.). Dermal fibroblast cultures were maintained at 37° C., in a 5% CO2/95% air atmosphere, with the culture medium being changed every 2-3 days. Dermal fibroblasts were used between) passage 7-17, for all experiments.
(§2) Following trypsinization, dermal fibroblasts were seeded in 24-well tissue culture plates, in PEP005-free, Fibroblast-Serum Containing Medium (1 ml), at a cell density of 2.5×10^4 cell/well. Dermal fibroblasts were maintained at 37° C., in a 5% CO2/95% air atmosphere, overnight. At this stage, the culture medium was replaced with Fibroblast-Serum Containing Medium (600 μl), containing 0 μg/ml, 0.01 μg/ml, 0.1 μg/ml, 1 μg/ml, 10 μg/ml or 100 μg/ml PEP005, +/−TGF-β1 (10 ng/ml) (three culture wells per PEP005 concentration). A control was also established, consisting of cells in Fibroblast-Serum Containing Medium, containing 1% DMSO. The dermal fibroblasts were maintained at 37° C., in a 5% CO2/95% air atmosphere, for 24 h or 72 h, prior to washing in PBS (3×1 ml) and Trizol® Reagent (250 μl) added to the cells, for 5 min at room temperature, to induce cell lysis. RNA was extracted by the phenol-chloroform method, as described above, while a cDNA library was generated via random hexamer RT, as described above. RNA (1 μg) was added to 100 µM random hexamer (1 μl), 5×RT Buffer (4 μl), 2.5 mM Deoxynucleoside Triphosphates (dNTPs, 5 μl), 2 μl DTT and Nuclease-Free Water, were added to the reaction (total volume, 20 μl). To denature the RNA, reaction tubes were placed in a GeneAmp PCR System 9700 (Applied Biosystems, Cheshire, U.K.) and heated for 5 min/95° C., prior to cooling to 4° C. Superscript (1 μl) and RNAsin® Ribonuclease Inhibitor (1 μl, Promega, Hampshire, U.K.) were added to each tube, and the tubes subjected to […] at 20° C. for 10 min, 42° C. for 1 h and 95° C. for 5 min, prior to storage at 4° C., until required. As a negative control, RT was also performed, with Nuclease-Free Water replacing the RNA sample.
(§3) qPCR was performed, as described above, with the probe and primers for HAS1, HAS2 and HAS3 (target genes) and the 18s ribosomal RNA (reference gene), designed and supplied by Applied Biosystems. PCR was performed in a final volume of 20 μl/sample, with each reaction mix consisting of cDNA (1 μl), target gene primers and probe (1 μl), Taqman® FAST Universal PCR Master Mix (10 μl, Applied Biosystems), and Nuclease-Free Water (8 μl). PCR amplification was performed, using an initial cycle of 95° C. for 1 s, followed by 40 cycles of 60° C. for 20 s. A cDNA-free control was also included. Again, the comparative CT method was used for relative quantification of gene expression. Each experiment was performed on three separate occasions.

[2] = test system: dermal fibroblasts; assay: Hyaluronan pericellular coat formation by dermal fibroblasts (particle exclusion assay); conditions: TGF-β1 10 ng/ml, absence of PEP005, 24 h
Description: as §1
Following trypsinization, dermal fibroblasts were seeded in 53 mm bacteriological grade culture dishes (VWR International Ltd., Leicestershire, U.K.), in PEP005-free, Fibroblast-Serum Containing Medium (2 ml), at a density of 7×10^4 cell/dish. Dermal fibroblasts were maintained at 37° C., in a 5% CO2/95% air atmosphere, overnight, prior to washing in PBS (2×2 ml) and maintenance in serum-free, Fibroblast-Serum Containing Medium (2 ml), containing 0 μg/ml, 0.01 μg/ml, 0.1 μg/ml, 1 μg/ml, 10 μg/ml or 100 μg/ml PEP005, +/−TGF-β1 (10 ng/ml) (three culture dishes per PEP005 concentration). A control was also established, consisting of cells in serum-free, Fibroblast-Serum Containing Medium, containing 1% DMSO. The dermal fibroblasts were maintained at 37° C., in a 5% CO2/95% air atmosphere, for 24 h or 72 h. At 24 h and 72 h, the culture dishes were treated with formalized horse blood erythrocytes (TCS Biosciences Ltd., Buckinghamshire, U.K.). The formalized horse blood erythrocytes were washed in PBS, to remove sodium azide (3×20 ml) and centrifuged at 100 g/7 min, at 4° C. The erythrocyte cell pellet obtained was re-suspended in serum-free, Fibroblast-Serum Containing Medium, to a density of 1×10^8 cells/ml. Aliquots of the erythrocyte cell suspension (500 μl) were supplemented to each culture dish and the dishes agitated, prior to maintenance at 37° C., in a 5% CO2/95% air atmosphere, for 15 min. Zones of erythrocyte exclusion were visualized by light microscopy, using a Zeiss Axiovery 135 Inverted Microscope (Carl Zeiss Ltd., Hertfordshire, U.K.), with a Hamamatsun C5985 chilled CCD camera (Hamamatsu Photonics U.K. Ltd., Hertfordshire, U.K.) and using Openlab Software 3.0.8 (Improvision Ltd., Warwickshire, U.K.). Each experiment was performed on three separate occasions.

[3] = test system: HAS3; assay: HAS3 gene expression by dermal fibroblasts (qPCR); conditions: TGF-β1 10 ng/ml
Description: as §1, §2, §3

[4] = test system: dermal fibroblasts; assay: Hyaluronan synthesis by dermal fibroblasts (Hyaluronic Acid Quantitative Test Kit); conditions: TGF-β1 10 ng/ml, absence of PEP005, 24 h
Description: as §1
Following trypsinization, dermal fibroblasts were seeded in 24-well tissue culture plates in PEP005-free, Fibroblast-Serum Containing Medium (1 ml), at a cell density of 2.5×10^4 cell/well. Dermal fibroblasts were maintained at 37° C., in a 5% CO2/95% air atmosphere, for 48 h, prior to maintenance in serum-free, Fibroblast-Serum Containing Medium (1 ml), for a further 48 h. At this stage, the serum-free, culture medium was replaced with Fibroblast-Serum Containing Medium (600 μl), containing 0 μg/ml, 0.01 μg/ml, 0.1 μg/ml, 1 μg/ml, 10 μg/ml or 100 μg/ml PEP005, +/−TGF-β1 (10 ng/ml) (three culture wells per PEP005 concentration). A control was also established, consisting of cells in serum-free, Fibroblast-Serum Containing Medium, containing 1% DMSO. The dermal fibroblasts were maintained at 37° C., in a 5% CO2/95% air atmosphere, for 24 h or 72 h, prior to culture medium removal. Hyaluronan synthesis in the collected culture media was quantified, using a Hyaluronic Acid Quantitative Test Kit (Corgenix U.K. Ltd., Cambridgeshire, U.K.), which utilizes a naturally occurring bovine binding protein to hyaluronan. Supernatants were assayed, as per manufacturer's instructions, and optical density measured using a spectrophotometer at 450 nm. Hyaluronan concentrations were determined by comparing the absorbance of the sample against a reference curve prepared from the reagent blank and standards. Each experiment was performed on three separate occasions.

[5] = test system: HAS2; assay: HAS2 gene expression by dermal fibroblasts (qPCR); conditions: TGF-β1 10 ng/ml
Description: as §1, §2, §3

TGF-β1: TGF-β1 (10 ng/ml) added to dermal fibroblast cultures with or without PEP005 [reference compound]
HAS1 expression ([1]; absence of PEP005, 24 h, compared to control fibroblasts (p<0.001)): major up-regulation
HAS1 expression ([1]; absence of PEP005, 72 h, compared to control fibroblasts): up-regulation
hyaluronan pericellular coat formation [2]: slight increase
HAS3 expression ([3]; absence of PEP005, 24 h (p<0.01)): inhibitory effect
HAS3 expression ([3]; absence of PEP005, 72 h): inhibitory effect
hyaluronan synthesis [4]: slight stimulation
HAS2 expression ([5]; absence of PEP005, 24 h): little effect
HAS2 expression ([5]; absence of PEP005, 72 h (p>0.05)): minimal effects
